Data taken from ChEMBL document CHEMBL5154776, “Discovery of Potent and Orally Bioavailable Platelet-Derived Growth Factor Receptor (PDGFR) Inhibitors for the Treatment of Osteosarcoma” (J Med Chem, 2022).
Values belong to the compound of their own block, whether it stands above or below them.

How the values were obtained:
[1] = target: T1, Platelet-derived growth factor receptor beta (Homo sapiens, UniProt P09619); experiment: Inhibition of PDGFRbeta (unknown origin) by caliper mobility shift assay
[2] = target: T1, Platelet-derived growth factor receptor beta; experiment: Inhibition of PDGFRbeta (unknown origin) at 100 nM by caliper mobility shift assay relative to control
[3] = target: Platelet-derived growth factor receptor alpha (Homo sapiens, UniProt P16234); settings: dose 100.0 nM
Description: Inhibition of PDGFRalpha (unknown origin) at 100 nM by caliper mobility shift assay relative to control

HOS-TE85 = experiment: Antiproliferative activity against human MNNG/HOS cells assessed as reduction in cell viability incubated for 48 hrs by MTT assay; settings: HOS-TE85, 48 h
SAOS-2 = experiment: Antiproliferative activity against human SAOS-2 cells assessed as reduction in cell viability incubated for 48 hrs by MTT assay; settings: SAOS-2, 48 h
MG-63 = experiment: Antiproliferative activity against human MG-63 cells assessed as reduction in cell viability incubated for 48 hrs by MTT assay; settings: MG-63, 48 h
U2OS = experiment: Antiproliferative activity against human U2OS cells assessed as reduction in cell viability incubated for 48 hrs by MTT assay
[4] = Oral bioavailability in Sprague-Dawley rat at 20 mg/kg measured at 0.033 to 48 hrs by UHPLC-MS/MS analysis; type: ADME, organism-based; settings: in vivo, time 0.033-48 hrs
[5] = Toxicity in BALB/c nude mouse xenograted with human MNNG/HOS cells assessed as morphological change in kidney at 15 to 30 mg/kg/day, po for 14 days by hematoxylin and eosin staining method; type: organism-based, HOS-TE85; settings: in vivo, 336 h, dose 15-30 mg/kg/day, time 14 day
[6] = Toxicity in BALB/c nude mouse xenograted with human MNNG/HOS cells assessed as effect on heart weight at 15 to 30 mg/kg/day, po dosed for 14 days; type: organism-based, HOS-TE85; settings: in vivo, 336 h, dose 15-30 mg/kg/day, time 14 day
[7] = Toxicity in BALB/c nude mouse xenograted with human MNNG/HOS cells assessed as effect on kidney weight at 15 to 30 mg/kg/day, po dosed for 14 days; type: organism-based, HOS-TE85; settings: in vivo, 336 h, dose 15-30 mg/kg/day, time 14 day
[8] = Toxicity in C57/BL6 mouse assessed as change in kidney weight at 40 to 80 mg/kg/day, po dosed for 10 days; type: organism-based; settings: in vivo, 240 h, dose 40-80 mg/kg/day, time 10 day
[9] = Toxicity in C57/BL6 mouse assessed as tolerability at 40 to 80 mg/kg/day, po dosed for 10 days; type: organism-based; settings: in vivo, 240 h, dose 40-80 mg/kg/day, time 10 day
[10] = Toxicity in C57/BL6 mouse assessed as change in lung weight at 40 to 80 mg/kg/day, po dosed for 10 days; type: organism-based; settings: in vivo, 240 h, dose 40-80 mg/kg/day, time 10 day
[11] = Toxicity in C57/BL6 mouse assessed as histopathological change in liver at 40 to 80 mg/kg/day, po dosed for 10 days by Hematoxylin and eosin based staining analysis; type: organism-based; settings: in vivo, 240 h, dose 40-80 mg/kg/day, time 10 day
[12] = Toxicity in C57/BL6 mouse assessed as change in heart weight at 40 to 80 mg/kg/day, po dosed for 10 days; type: organism-based; settings: in vivo, 240 h, dose 40-80 mg/kg/day, time 10 day
[13] = AUC(0 to infinity) in Sprague-Dawley rat at 4 mg/kg, ip measured at 0.08 to 8 hrs by UHPLC-MS/MS analysis; type: ADME, organism-based; parameters: dose 4 mg/kg, time 0.08-8 hrs, route ip; settings: in vivo
[14] = Half life in Sprague-Dawley rat at 4 mg/kg, ip measured at 0.08 to 8 hrs by UHPLC-MS/MS analysis; type: ADME, organism-based; settings: in vivo, time 0.08-8 hrs
[15] = Toxicity in BALB/c nude mouse xenograted with human MNNG/HOS cells assessed as effect on liver weight at 15 to 30 mg/kg/day, po dosed for 14 days; type: organism-based, HOS-TE85; settings: in vivo, 336 h, dose 15-30 mg/kg/day, time 14 day
[16] = Toxicity in C57/BL6 mouse assessed as change in body weight at 40 to 80 mg/kg/day, po dosed for 10 days; type: organism-based; settings: in vivo, 240 h, dose 40-80 mg/kg/day, time 10 day
[17] = Cmax in Sprague-Dawley rat at 4 mg/kg, ip measured at 0.08 to 8 hrs by UHPLC-MS/MS analysis; type: ADME, organism-based; parameters: time lower 0.08 hrs, dose 4 mg/kg, time upper 8 hrs, route ip; settings: in vivo
[18] = Toxicity in C57/BL6 mouse assessed as change in liver weight at 40 to 80 mg/kg/day, po dosed for 10 days; type: organism-based; settings: in vivo, 240 h, dose 40-80 mg/kg/day, time 10 day
[19] = Cmax in Sprague-Dawley rat at 20 mg/kg, po measured at 0.033 to 48 hrs by UHPLC-MS/MS analysis; type: ADME, organism-based; parameters: dose 20 mg/kg, time upper 48 hrs, time lower 0.033 hrs, route po; settings: in vivo
[20] = Toxicity in BALB/c nude mouse xenograted with human MNNG/HOS cells assessed as effect on body weight at 15 to 30 mg/kg/day, po dosed for 14 days; type: organism-based, HOS-TE85; settings: in vivo, 336 h, dose 15-30 mg/kg/day, time 14 day
[21] = AUC(0 to infinity) in Sprague-Dawley rat at 20 mg/kg, po measured at 0.033 to 48 hrs by UHPLC-MS/MS analysis; type: ADME, organism-based; parameters: dose 20 mg/kg, time 0.033-48 hrs, route po; settings: in vivo
[22] = Hepatotoxicity in C57/BL6 mouse assessed as effect on alanine aminotransferase level at 40 to 80 mg/kg/day, po dosed for 10 days by liver function test; type: toxicity, organism-based; settings: in vivo, 240 h, dose 40-80 mg/kg/day, time 10 day
[23] = Hepatotoxicity in C57/BL6 mouse assessed as effect on aspartate aminotransferase level at 40 to 80 mg/kg/day, po dosed for 10 days by liver function test; type: toxicity, organism-based; settings: in vivo, 240 h, dose 40-80 mg/kg/day, time 10 day
[24] = Half life in Sprague-Dawley rat at 20 mg/kg, po measured at 0.033 to 48 hrs by UHPLC-MS/MS analysis; type: ADME, organism-based; settings: in vivo, time 0.033-48 hrs
[25] = Nephrotoxicity in C57/BL6 mouse assessed as effect on creatinine level at 40 to 80 mg/kg/day, po dosed for 10 days by kidney function test; type: toxicity, organism-based; settings: in vivo, 240 h, dose 40-80 mg/kg/day, time 10 day
[26] = Toxicity in BALB/c nude mouse xenograted with human MNNG/HOS cells assessed as morphological change in liver at 15 to 30 mg/kg/day, po for 14 days by hematoxylin and eosin staining method; type: organism-based, HOS-TE85; settings: in vivo, 336 h, dose 15-30 mg/kg/day, time 14 day
[27] = Toxicity in BALB/c nude mouse xenograted with human MNNG/HOS cells assessed as effect on lung weight at 15 to 30 mg/kg/day, po dosed for 14 days; type: organism-based, HOS-TE85; settings: in vivo, 336 h, dose 15-30 mg/kg/day, time 14 day
[28] = Toxicity in C57/BL6 mouse assessed as change in spleen weight at 40 to 80 mg/kg/day, po dosed for 10 days; type: organism-based; settings: in vivo, 240 h, dose 40-80 mg/kg/day, time 10 day
[29] = Toxicity in BALB/c nude mouse xenograted with human MNNG/HOS cells assessed as effect on spleen weight at 15 to 30 mg/kg/day, po dosed for 14 days; type: organism-based, HOS-TE85; settings: in vivo, 336 h, dose 15-30 mg/kg/day, time 14 day
[30] = Toxicity in C57/BL6 mouse assessed as histopathological change in kidney at 40 to 80 mg/kg/day, po dosed for 10 days by Hematoxylin and eosin based staining analysis; type: organism-based; settings: in vivo, 240 h, dose 40-80 mg/kg/day, time 10 day

T1 sequence (P09619 whole entry): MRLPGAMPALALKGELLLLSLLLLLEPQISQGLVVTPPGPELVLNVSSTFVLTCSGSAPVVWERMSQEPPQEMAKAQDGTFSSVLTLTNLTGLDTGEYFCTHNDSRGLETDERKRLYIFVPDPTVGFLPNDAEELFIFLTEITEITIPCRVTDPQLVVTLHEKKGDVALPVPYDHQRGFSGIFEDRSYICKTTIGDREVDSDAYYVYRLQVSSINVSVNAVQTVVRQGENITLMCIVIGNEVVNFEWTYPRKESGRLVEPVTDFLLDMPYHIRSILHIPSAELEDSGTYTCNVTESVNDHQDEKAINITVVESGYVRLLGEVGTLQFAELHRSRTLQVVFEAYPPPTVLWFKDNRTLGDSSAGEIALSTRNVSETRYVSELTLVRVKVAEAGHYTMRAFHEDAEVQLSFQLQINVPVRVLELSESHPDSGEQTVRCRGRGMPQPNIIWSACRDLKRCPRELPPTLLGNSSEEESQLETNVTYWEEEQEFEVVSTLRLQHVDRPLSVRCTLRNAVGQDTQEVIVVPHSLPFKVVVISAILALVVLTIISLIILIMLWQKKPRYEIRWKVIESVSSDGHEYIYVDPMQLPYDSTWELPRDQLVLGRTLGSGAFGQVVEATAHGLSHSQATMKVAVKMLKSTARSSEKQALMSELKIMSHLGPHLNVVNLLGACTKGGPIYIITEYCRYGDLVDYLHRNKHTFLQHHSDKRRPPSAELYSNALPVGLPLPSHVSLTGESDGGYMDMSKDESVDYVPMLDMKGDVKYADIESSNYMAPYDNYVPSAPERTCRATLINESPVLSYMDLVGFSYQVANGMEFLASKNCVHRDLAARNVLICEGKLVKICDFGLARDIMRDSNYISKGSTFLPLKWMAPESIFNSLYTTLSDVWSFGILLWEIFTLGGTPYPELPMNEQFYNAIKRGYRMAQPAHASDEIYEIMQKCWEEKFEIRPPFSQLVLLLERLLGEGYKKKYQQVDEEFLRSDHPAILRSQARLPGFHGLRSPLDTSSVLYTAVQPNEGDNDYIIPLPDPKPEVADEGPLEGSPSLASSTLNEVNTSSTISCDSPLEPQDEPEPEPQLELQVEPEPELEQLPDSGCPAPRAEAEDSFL
Chain of Platelet-derived growth factor receptor alpha (P16234 whole entry): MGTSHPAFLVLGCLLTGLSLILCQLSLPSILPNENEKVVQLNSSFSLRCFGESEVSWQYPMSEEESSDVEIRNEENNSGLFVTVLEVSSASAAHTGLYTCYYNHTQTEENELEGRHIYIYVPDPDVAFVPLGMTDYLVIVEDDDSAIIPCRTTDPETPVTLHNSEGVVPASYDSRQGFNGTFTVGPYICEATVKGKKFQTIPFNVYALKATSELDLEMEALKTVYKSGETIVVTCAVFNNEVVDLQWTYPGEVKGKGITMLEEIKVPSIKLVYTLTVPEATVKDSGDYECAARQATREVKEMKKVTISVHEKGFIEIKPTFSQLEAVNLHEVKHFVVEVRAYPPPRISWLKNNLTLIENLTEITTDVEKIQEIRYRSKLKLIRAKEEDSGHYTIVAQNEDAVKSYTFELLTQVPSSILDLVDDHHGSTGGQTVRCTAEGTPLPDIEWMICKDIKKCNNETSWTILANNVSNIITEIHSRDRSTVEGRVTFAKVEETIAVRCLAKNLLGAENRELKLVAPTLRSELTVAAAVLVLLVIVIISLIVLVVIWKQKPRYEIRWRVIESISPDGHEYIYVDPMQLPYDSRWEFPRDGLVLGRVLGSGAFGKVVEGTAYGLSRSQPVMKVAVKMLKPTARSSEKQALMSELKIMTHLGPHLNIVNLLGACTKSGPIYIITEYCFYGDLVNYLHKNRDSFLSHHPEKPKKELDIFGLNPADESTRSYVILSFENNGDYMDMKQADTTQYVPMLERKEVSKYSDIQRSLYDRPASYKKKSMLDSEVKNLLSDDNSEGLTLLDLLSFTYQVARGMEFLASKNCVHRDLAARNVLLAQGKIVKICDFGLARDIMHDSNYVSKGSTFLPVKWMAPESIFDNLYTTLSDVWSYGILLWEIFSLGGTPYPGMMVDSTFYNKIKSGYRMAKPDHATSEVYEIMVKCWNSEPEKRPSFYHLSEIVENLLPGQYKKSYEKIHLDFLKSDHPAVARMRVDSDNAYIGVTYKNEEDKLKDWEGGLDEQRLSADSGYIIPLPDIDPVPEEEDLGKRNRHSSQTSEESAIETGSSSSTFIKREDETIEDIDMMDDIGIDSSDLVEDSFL

- IC50 [1]: 55.6 nM
SMILES: COc1cc(N2CCC(N3CCN(C)CC3)CC2)ccc1Nc1ncc(C)c(Nc2ccc3cn[nH]c3c2)n1

- IC50 [1]: 47.7 nM
SMILES: Cc1cnc(Nc2ccc(C(=O)N3CCN(C)CC3)cc2)nc1Nc1ccc2cn[nH]c2c1

- inhibition [2]: 91%
SMILES: Cc1cnc(Nc2ccc(N3CCN(C)CC3)cc2)nc1Nc1ccc2cccnc2c1

- IC50 [1]: 15.9 nM
SMILES: Cc1cnc(Nc2ccc(C(=O)NCCN3CCOCC3)cc2)nc1Nc1ccc2cn[nH]c2c1

- inhibition [2]: 95.8%
SMILES: CN1CCN(c2ccc(Nc3ncc(Cl)c(Nc4ccc5cn[nH]c5c4)n3)cc2)CC1

- IC50 [1]: 40.9 nM
SMILES: Cc1cnc(Nc2ccc(N3CCS(=O)(=O)CC3)cc2)nc1Nc1ccc2cn[nH]c2c1

- inhibition [2]: 90.3%
SMILES: Cc1cnc(Nc2ccc(N3CCN(C)CC3)cc2)nc1Nc1cccc2[nH]ccc12

- inhibition [2]: 74.1%
SMILES: Cc1cnc(Nc2ccc(N3CCN(C)CC3)cc2)nc1Nc1ccc2nccnc2c1

- inhibition [2]: 30.7%
SMILES: CCOC(=O)c1cnc(Nc2ccc(N3CCN(C)CC3)cc2)nc1Nc1ccc2cn[nH]c2c1

- inhibition [2]: 97.6%
- inhibition [3]: 89.9%
SMILES: CN1CCN(c2ccc(Nc3ncc(Br)c(Nc4ccc5cn[nH]c5c4)n3)cc2)CC1

- inhibition [2]: 88.9%
SMILES: Cc1cnc(Nc2ccc(N3CCN(C)CC3)cc2)nc1Nc1ccc2c(c1)CCC2

- inhibition [2]: 55%
SMILES: COc1cnc(Nc2ccc(N3CCN(C)CC3)cc2)nc1Nc1ccc2cn[nH]c2c1

- inhibition [2]: 98%
SMILES: Cc1cnc(Nc2ccc(N3CCN(C)CC3)cc2)nc1Nc1ccc2c(C)n[nH]c2c1

- IC50 [1]: 7.6 nM
- IC50 (U2OS): 550 nM
SMILES: CCN1CCN(c2ccc(Nc3ncc(C)c(Nc4ccc5cn[nH]c5c4)n3)cc2)CC1
- IC50 (HOS-TE85): 1400 nM
- IC50 (SAOS-2): 950 nM
- IC50 (MG-63): 960 nM

- bioavailability [4]: 62.9%
- AUC(0-inf) [13]: 211 ng·h/mL
- half-life [14]: 2.86 h
- Cmax [17]: 78.3 ng/mL
- Cmax [19]: 75.2 ng/mL
- AUC(0-inf) [21]: 665 ng·h/mL
- half-life [24]: 2.12 h
SMILES: CCN1CCN(c2ccc(Nc3ncc(C)c(Nc4ccc5cn[nH]c5c4)n3)cc2OC)CC1.Cl
- Activity [5]: Non-Toxic
- Activity [6]: Non-Toxic
- Activity [7]: Non-Toxic
- Activity [8]: Non-Toxic
- Activity [9]: Non-Toxic
- Activity [10]: Non-Toxic
- Activity [11]: Non-Toxic
- Activity [12]: Non-Toxic
- Activity [15]: Non-Toxic
- Activity [16]: Non-Toxic
- Activity [18]: Non-Toxic
- Activity [20]: Non-Toxic
- Activity [22]: Non-Toxic
- Activity [23]: Non-Toxic
- Activity [25]: Non-Toxic
- Activity [26]: Non-Toxic
- Activity [27]: Non-Toxic
- Activity [28]: Non-Toxic
- Activity [29]: Non-Toxic
- Activity [30]: Non-Toxic

- IC50 [1]: 4.6 nM
- IC50 (U2OS): 760 nM
SMILES: COc1cc(Nc2ncc(C)c(Nc3ccc4cn[nH]c4c3)n2)ccc1N1CCN(C)CC1
- IC50 (HOS-TE85): 1360 nM
- IC50 (SAOS-2): 720 nM
- IC50 (MG-63): 840 nM

- inhibition [2]: 78.6%
- inhibition [3]: 57.3%
SMILES: Cc1cnc(Nc2ccc(N3CCN(C)CC3)cc2)nc1Nc1ccc2[nH]ccc2c1
